Laboratory results published in patent US11382892B2, “Method for administration” (Hoffmann-La Roche Inc., priority 2012, dated 2022).
Values joined by “and” are separate entries in the source; they are usually repeats but may differ in a detail not shown here. Equal values may be shown once.

Assays:
Format in all cases: in vivo, human
[1] = system: MDM2 mRNA; assay: MDM2 mRNA assay in patient tumor biopsies; conditions: for MDM2 mRNA Average FCBL: cohort average; for MDM2 mRNA Median FCBL: cohort median; for MDM2 mRNA FCBL: individual patients, tumor biopsy vs baseline
Protocol: (§1) The 10 mg tablets contain hypromellose acetate succinate, mannitol, microcrystalline cellulose, croscarmellose sodium, colloidal silicon dioxide, and magnesium stearate. The film-coat consists of hypromellose, titanium dioxide, talc, triacetin, iron oxide yellow, and iron oxide red. The 50 mg, 200 mg, and 400 mg film coated tablets contain the excipients hypromellose acetate succinate, croscarmellose sodium, colloidal silicon dioxide, and magnesium stearate. The film-coat consists of polyvinyl alcohol, titanium dioxide, polyethylene glycol, talc, iron oxide yellow, iron oxide red, and iron oxide black.
(§2) Tumor biopsies were collected at baseline and cycle 1, day 5±2.

[2] = system: Ki-67 protein; assay: Ki-67 IHC assay in patient tumor biopsies; conditions: for Ki-67 IHC Average % CBL: cohort average; for Ki-67 IHC Median % CBL: cohort median; for Ki-67 IHC % CBL: individual patients, tumor biopsy vs baseline
Protocol: as §1, §2
The Ki-67 protein is a cellular marker for proliferation. It is strictly associated with cell proliferation and can be measured in tissue sections via immunohistochemistry to determine degree of proliferation. Ki-67 protein is present during all active phases of the cell cycle (G1, S, G2, and mitosis), but is absent from resting cells (00).

[3] = system: TUNEL + cells; assay: TUNEL assay in patient tumor biopsy cells; conditions: for TUNEL + cells (mm2) Average FCBL: cohort average; for TUNEL + cells (mm2) Median FCBL: cohort median; for TUNEL + cells (mm2) FCBL: individual patients, tumor biopsy vs baseline
Protocol: as §1, §2
Tumor biopsy cells were analyzed via TUNEL (terminal deoxynucleotidyl transferase dUTP nick end labeling) to determine cell apoptosis. TUNEL is a common method for detecting DNA fragmentation that results from apoptotic signaling cascades. The assay relies on the presence of nicks in the DNA which can be identified by terminal deoxynucleotidyl transferase or TdT, an enzyme that will catalyze the addition of dUTPs that are secondarily labeled with a marker.

## COc1cc(C(=O)O)ccc1NC(=O)[C@@H]1N[C@@H](CC(C)(C)C)[C@](C#N)(c2ccc(Cl)cc2F)[C@H]1c1cccc(Cl)c1F [Compound A, 4-{[(2R,3S,4R,5S)-4-(4-Chloro-2-fluoro-phenyl)-3-(3-chloro-2-fluoro-phenyl)-4-cyano-5-(2,2-dimethyl-propyl)-pyrrolidine-2-carbonyl]-amino}-3-methoxy-benzoic acid]
[1]; BM-A1 800 mg bid Qwk × 3
  MDM2 mRNA Average FCBL: 1.2
  MDM2 mRNA Median FCBL: 1.1
  MDM2 mRNA FCBL: 1.0 and 1.4 and 1.1
[1]; BM-A2 1200 mg bid Qwk × 3
  MDM2 mRNA Average FCBL: 1.4
  MDM2 mRNA Median FCBL: 1.3
  MDM2 mRNA FCBL: 1.0 (2×) and 1.8 and 2.1 and 1.3
[1]; BM-B1 400 mg bid × 5 d
  MDM2 mRNA Average FCBL: 8.5
  MDM2 mRNA Median FCBL: 8.7
  MDM2 mRNA FCBL: 5.4 and 3.7 and 12.1 and 12.9
[1]; BM-B2 500 mg bid × 3 d
  MDM2 mRNA Average FCBL: 5.1
  MDM2 mRNA Median FCBL: 1.3
  MDM2 mRNA FCBL: 0.2 and 0.7 and 1.3 and 3.8 and 19.6
[1]; BM-B3 500 mg qd × 5 d
  MDM2 mRNA Average FCBL: 2.4
  MDM2 mRNA Median FCBL: 2.0
  MDM2 mRNA FCBL: 1.5 and 2.5 and 4.2 and 1.2
[1]; doses and schedules of Table 8
  levels of MDM2 mRNA expression in patient's tumors: increase in the levels of MDM2 mRNA expression
[2]; BM-A1 800 mg bid Qwk × 3
  Ki-67 IHC Average % CBL: −8.5%
  Ki-67 IHC Median % CBL: −8.5%
  Ki-67 IHC % CBL: 14% and −31%
[2]; BM-A2 1200 mg bid Qwk × 3
  Ki-67 IHC Average % CBL: −27.8%
  Ki-67 IHC Median % CBL: −33.0%
  Ki-67 IHC % CBL: −57% and 30% and −5% and −75% and −33%
[2]; BM-B1 400 mg bid × 5 d
  Ki-67 IHC Average % CBL: −17.7%
  Ki-67 IHC Median % CBL: −13.0%
  Ki-67 IHC % CBL: −97% and −13% and 57%
[2]; BM-B2 500 mg bid × 3 d
  Ki-67 IHC Average % CBL: −53.9%
  Ki-67 IHC Median % CBL: −69.8%
  Ki-67 IHC % CBL: 3% and −70% (2×) and −79%
[2]; BM-B3 500 mg qd × 5 d
  Ki-67 IHC Average % CBL: −57.1%
  Ki-67 IHC Median % CBL: −66.5%
  Ki-67 IHC % CBL: −67% and −96% and −8%
[2]; doses and schedules of Table 9
  tumor proliferation via Ki67: Decrease levels of tumor proliferation
[3]; BM-A1 800 mg bid Qwk × 3
  TUNEL + cells (mm2) Average FCBL: 1.2
  TUNEL + cells (mm2) Median FCBL: 0.8
  TUNEL + cells (mm2) FCBL: 0.8 (2×) and 3.2 and 0.1
[3]; BM-A2 1200 mg bid Qwk × 3
  TUNEL + cells (mm2) Average FCBL: 2.7
  TUNEL + cells (mm2) Median FCBL: 2.3
  TUNEL + cells (mm2) FCBL: 5.3 and 2.3 and 0.9 and 1.6 and 3.3
[3]; BM-B1 400 mg bid × 5 d
  TUNEL + cells (mm2) Average FCBL: 1.7
  TUNEL + cells (mm2) Median FCBL: 1.8
  TUNEL + cells (mm2) FCBL: 0.9 (2×) and 1.8 (2×) and 3.2
[3]; BM-B2 500 mg bid × 3 d
  TUNEL + cells (mm2) Average FCBL: 1.7
  TUNEL + cells (mm2) Median FCBL: 0.9
  TUNEL + cells (mm2) FCBL: 0.5 and 0.4 and 0.6 and 5.3 and 1.2 and 1.9
[3]; BM-B3 500 mg qd × 5 d
  TUNEL + cells (mm2) Average FCBL: 1.2
  TUNEL + cells (mm2) Median FCBL: 1.2
  TUNEL + cells (mm2) FCBL: 0.6 and 1.7 and 1.2
[3]; doses and schedules of Table 10
  apoptosis by TUNEL: increase in apoptosis
